Data on 10 compounds can be found in ChEMBL document CHEMBL1201862, “PubChem BioAssay data set” (2004).

What all share (experiment): NCI-60 cell line screen, 48 h
Test [1] has as its system K562.
The subject of test [2] is OVCAR-4.
Test [3] has as its system SF-295.
Test [4] relates to SK-MEL-28.
Test [5] concerns COLO 205.
The subject of test [6] is LOX IMVI.
Test [7] concerns MDA-MB-435.
For test [8], the system named is SK-OV-3.
In test [9] the test system is HCC 2998.
Test [10] has as its system NCI-H226.
Test [11] deals with MDA-MB-231.
Test [12] deals with HCT-15.
Test [13] has as its system SN12C.
For test [14], the system named is SF-268.
Test [15] has as its system A549.
Test [16] has as its system EKVX.
Test [17] concerns IGROV-1.
Test [18] deals with OVCAR-5.
For test [19], the system named is NCI-H460.
Test [20] relates to KM12.

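Growth conditions: 96-well plates. Treatment: test compound, 48 hours, 5 concentrations. Analysis: linear interpolation between bracketing concentrations; unreached endpoints set to highest concentration. Here, GI50 denotes the concentration required for 50% inhibition of growth.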 Calls of active or inactive are those of the source. No stated cut-off is given here; in the data, active = GI50 up to about 1.1 µM and inactive = higher.

For the compound `CC1=NN(C(=O)c2ccccc2O)C(=O)/C1=C/c1ccc([N+](=O)[O-])cc1`, the GI50 was 0.0434 µM (active) in [1]; 0.482 µM (active) in test [2]; 0.131 µM (active) in [3]; 31.6 µM (inactive) in [4]; 16.5 µM (inactive) in [5]; 0.267 µM (active) in test [6]. For the same compound, the GI50 in test [7] was 0.106 µM (active); in test [8], 0.0966 µM (active); in [9], 1.85 µM (inactive); in [10] it was 0.459 µM (active); in test [11], 26.9 µM (inactive); in test [12], 0.361 µM. The GI50 in test [13] was 0.372 µM (active); in test [14] it was 0.0855 µM (active); in test [15] it was 0.0931 µM (active); in test [16], 1.2 µM (inactive); in test [17], 0.0635 µM (active); in test [18], 3.12 µM (inactive). Moreover, the GI50 in test [19] is 0.114 µM (active); in test [20] it was 0.161 µM (active).

With `Cc1c(CNc2ccc(C(=O)NC(CC(=O)O)C(=O)O)cc2)ccc2nc(N)nc(N)c12` (stereo not drawn), the GI50 in test [1] is 0.0101 µM (active); in test [2], > 100 µM (inactive); in [3], < 0.0106 µM (active); in test [4], 1.7 µM (inactive); in test [5] it was > 9.42 µM (inactive); in [6], < 0.01 µM (active). The GI50 is < 0.01 µM (active) in [7]; 0.146 µM (active) in [8]; < 0.01 µM (active) in test [9]; > 100 µM (inactive) in test [10]; > 100 µM (inactive) in [11]; < 0.01 µM in test [12]. The GI50 in test [13] was 0.0499 µM (active); in test [14], < 0.01 µM (active); in test [15] it was < 0.01 µM (active); in test [16] it was > 100 µM (inactive); in test [17], < 0.01 µM (active); in [19] it was < 0.01 µM (active). Also, in test [20], the GI50 is 0.0743 µM (active).

For `COC(=O)C(=O)C(C(=O)C(=O)Nc1ccc(C)cc1)c1nc2ccc(C(=O)c3ccccc3)cc2nc1O` (stereo not drawn), the GI50 in test [1] is 42.2 µM (inactive); in [2], 49 µM (inactive); in test [3], 65 µM (inactive); in test [4], > 100 µM (inactive); in test [6], > 100 µM (inactive); in test [7], 47.3 µM (inactive). Also, the GI50 in test [8] is > 100 µM (inactive); in test [9], 92.3 µM (inactive); in test [10], 95.5 µM (inactive); in test [11], > 100 µM (inactive); in test [12], 52.2 µM; in [13], > 100 µM (inactive). Further, the GI50 in test [14] is 73.6 µM (inactive); in test [15], > 100 µM (inactive); in [16], > 100 µM (inactive); in [17] it was > 100 µM (inactive); in [18] it was > 100 µM (inactive); in test [19] it was 70.8 µM (inactive). Further, the GI50 in test [20] was 30.4 µM (inactive).

With `CC(C)/C(Cl)=N/OC(=O)Nc1ccc(OC(F)(F)F)cc1`, the GI50 in [1] was 1.76 µM (inactive); in test [2] it was 4.19 µM (inactive); in test [3], 18.5 µM (inactive); in [4], 13.3 µM (inactive); in test [5], 1.84 µM (inactive); in test [6] it was 2.1 µM (inactive). In addition, the GI50 was 12.6 µM (inactive) in test [7]; 17.6 µM (inactive) in test [8]; 16.7 µM (inactive) in [9]; 11.1 µM (inactive) in test [10]; 15.6 µM (inactive) in test [11]; 6.12 µM in test [12]. Also, the GI50 was 16.4 µM (inactive) in test [13]; 23.2 µM (inactive) in test [14]; 17 µM (inactive) in test [15]; 8.17 µM (inactive) in test [16]; 16.5 µM (inactive) in [17]; 15.6 µM (inactive) in test [18]. The GI50 in test [19] and in [20] was 16.6 µM (inactive) throughout.

`CC(C)OCC1CC(CC(=O)Nc2nncs2)C(=O)O1` (stereo not drawn): the GI50 in [1], in test [2], in test [3], in test [4], in [5] and in test [6] was > 100 µM (inactive) in each case. Besides, the GI50 in [7] was > 100 µM (inactive); in test [8], > 100 µM (inactive); in [9] it was > 100 µM (inactive); in [10], > 100 µM (inactive); in test [11], > 100 µM (inactive); in [12] it was > 100 µM. Further, the GI50 in test [13], in test [14], in test [15], in [16], in test [17] and in [18] was > 100 µM (inactive) in each case. Also, the GI50 in [19] and in test [20] was > 100 µM (inactive) in each case.

For the compound `O=C1C(c2ccccc2)=C(c2ccccc2)C1(Cl)Cl`, the GI50 in test [1] is 1.91 µM (inactive); in test [2], 3.67 µM (inactive); in test [3] it was 9.89 µM (inactive); in test [4] it was 3.78 µM (inactive); in test [5] it was 2.59 µM (inactive); in [6], 1.93 µM (inactive). In addition, the GI50 in test [7] is 2.43 µM (inactive); in [8] it was 15.8 µM (inactive); in [9], 5.19 µM (inactive); in [10] it was 3.07 µM (inactive); in [11] it was 3.28 µM (inactive); in test [12] it was 2.07 µM. The GI50 in test [13] was 2.87 µM (inactive); in test [14] it was 2.99 µM (inactive); in test [15] it was 11.4 µM (inactive); in test [16], 5.04 µM (inactive); in [17], 3.95 µM (inactive); in test [18], 7.82 µM (inactive). For the same compound, the GI50 in test [19] was 5.9 µM (inactive); in test [20], 6.65 µM (inactive).

For the compound `CCOc1cc(C2SCC(=O)N2c2nc3cc4sc(N5C(=O)CSC5c5ccc(O)c(OCC)c5)nc4cc3s2)ccc1O` (stereo not drawn), the GI50 is > 64.6 µM (inactive) in [1]; 48.4 µM (inactive) in [2]; > 100 µM (inactive) in test [3]; > 100 µM (inactive) in test [4]; 4.8 µM (inactive) in [5]; 38.3 µM (inactive) in test [6]. Also, the GI50 is 29.9 µM (inactive) in [7]; > 100 µM (inactive) in test [8]; > 100 µM (inactive) in [9]; 23.6 µM (inactive) in test [10]; > 48.5 µM (inactive) in [11]; 8.47 µM in test [12]. Moreover, the GI50 in [13] is > 31.5 µM (inactive); in test [14] it was > 68.2 µM (inactive); in test [15], 6.98 µM (inactive); in test [16], 67.3 µM (inactive); in test [17] it was 15.9 µM (inactive); in test [18], > 100 µM (inactive). Further, the figures for the GI50 in test [19] and in test [20] were 2.37 µM (inactive) and 45.3 µM (inactive), respectively.

Regarding `Cn1c(NNc2ccccc2)cc(=O)[nH]c1=O`, the GI50 in test [1] was 36.7 µM (inactive); in test [2], 55.8 µM (inactive); in test [3], 21.8 µM (inactive); in test [4], 37.8 µM (inactive); in test [5], 36.9 µM (inactive); in [6] it was 20 µM (inactive). Further, the GI50 in test [7] is 20.9 µM (inactive); in [8], 72.6 µM (inactive); in test [9], 27.3 µM (inactive); in [10], > 100 µM (inactive); in test [11], 28.9 µM (inactive); in test [12], 16.3 µM. Further, the GI50 in test [13] was > 100 µM (inactive); in test [14], 34.1 µM (inactive); in test [15] it was 37.7 µM (inactive); in [16] it was > 100 µM (inactive); in test [17], 48.2 µM (inactive); in test [18], > 100 µM (inactive). The GI50 was 51.9 µM (inactive) in test [19] and 15.2 µM (inactive) in test [20].

Consider `NC(CCC(=O)O)C(=O)NC(Cc1ccc(N(CCCl)CCCl)cc1)C(=O)O` (stereo not drawn), for which the GI50 in test [1], in test [2], in test [3], in test [4], in test [5] and in [6] was > 100 µM (inactive) in each case. Besides, the GI50 in [7] was > 100 µM (inactive); in test [8], > 100 µM (inactive); in test [9], > 100 µM (inactive); in test [10] it was > 100 µM (inactive); in [11] it was > 100 µM (inactive); in test [12] it was > 100 µM. The GI50 in test [13], in test [14], in test [15], in test [16], in [17] and in test [18] was > 100 µM (inactive) throughout. The GI50 in test [19] and in test [20] was > 100 µM (inactive) throughout.

With `COC(=O)c1ccccc1CC1Cc2cccc(C)c2C1=O` (stereo not drawn), the GI50 in [1] is 22.3 µM (inactive); in test [2] it was 27.7 µM (inactive); in test [3], 38.9 µM (inactive); in test [4], 32.5 µM (inactive); in [5] it was 20.3 µM (inactive); in [6] it was 22.4 µM (inactive). The GI50 in [7] was 23.3 µM (inactive); in test [8], 38.9 µM (inactive); in test [9], 40.3 µM (inactive); in test [10], 27 µM (inactive); in [11], 51.5 µM (inactive); in test [12], 24 µM. The GI50 in test [13] was 50.5 µM (inactive); in [14], 37.8 µM (inactive); in test [15], 51.8 µM (inactive); in test [16], 11.7 µM (inactive); in test [17], 46.5 µM (inactive); in [18], 57.5 µM (inactive). Also, the results for the GI50 in test [19] and in test [20] were 47.5 µM (inactive) and 27 µM (inactive), respectively.
